A short description of assay [1]: Inhibition of [3H]D-cis-diltiazem binding to calcium channel of isolated guinea pig skeletal muscle microsomal preparation. In kind it is microsomes, Cavia porcellus, Muscle tissue.
The next assay is filed under the species Oryctolagus cuniculus. As to the kind of experiment: Inhibition of K+ induced contraction of rabbit aorta. In kind it is functional. Conditions: read-out: I50.

Molecules are shown by their SMILES.

For `COc1ccc([C@@H]2CC3c4ccccc4C2C[C@@]32CCNC2)cc1` (stereo partly specified), the Kd in assay [1] is 0.33 µM. Moreover, the IC50 in the assay filed under Oryctolagus cuniculus was 0.95 µM.

For the compound `COc1ccc([C@@H]2Sc3ccccc3N(CCN(C)C)C(=O)[C@@H]2OC(C)=O)cc1` [DILTIAZEM], the Kd in assay [1] amounted to 0.38 µM. The IC50 in the assay listed under Oryctolagus cuniculus was determined as 1.8 µM.

Turning to `COc1ccc([C@@H]2CC3c4ccccc4C2C[C@]32CCNC2)cc1` (stereo partly specified), in assay [1], the Kd came out at 1.26 µM. Moreover, the IC50 in the assay filed under Oryctolagus cuniculus stood at 2 µM.

Values taken from ChEMBL document CHEMBL1126338, “The synthesis of a conformationally rigid calcium channel blocker” (Bioorg Med Chem Lett, 1992).
